As usually defined, the EC50 is the midpoint of the concentration-response curve. The term Ki denotes the equilibrium dissociation constant of an inhibitor or competing ligand from its target.

Some results are limits rather than exact numbers.

This is an account of results in patent publication US11035852B2, “Identifying drug candidates for treating polycystic kidney disease using organoids generated from primary cells” (UMC Utrecht Holding B.V., priority 2011, dated 2021).

In one experiment the test system is CFTR. As to conditions: CFTR corrector; cited from earlier work.
As for `O=C(Nc1ncc(C(c2ccccc2Cl)N2CCC(O)C2)s1)C1(c2ccc3c(c2)OCO3)CC1` (stereo not shown) [C18, 1-(benzo[d][1,3]di-oxol-5-yl)-N-(5-((2-chlorophenyl)(3-hydroxy-pyrrolidin-1-yl)methyl)thiazol-2-yl)cyclopropane carboxamide], the “Potency: Ks” value was “Reference # 24 Name: CF-106951 Potency Ks ~0.6 microM Solvent: DMSO Hints for use: Use at 3 to 6 microM for maximum effect. M.W. 497.99”.
With `COc1ccc2nc(Nc3nc(O)cc(CSc4nc5ccccc5[nH]4)n3)nc(C)c2c1` [C1, 6-(1H-Benzoimidazol-2-ylsulfanyl-methyl)-2-(6-methoxy-4-methyl-quinazolin-2-ylamino)-pyrimidin-4-ol], the “Potency: Ks” value was “Reference #** 11 Potency: Ks = 3 microM Solvent: DMSO Hints For Use: M.W.: 445.5”.

Staying with this experiment, now noted: CFTR corrector; read-out: Potency: EC50; cited from earlier work.
For the compound `CC(=O)c1cccc(Nc2nc(-c3sc(NC(=O)c4ccccc4)nc3C)cs2)c1` [C13, N-(2-(3-acetylphenyl-amino)-4′-methyl-4,5′-bithiazol-2′-yl)benzamide], the EC50 is 2 µM.
As to `O=C(N/N=C\c1ccc(O)c(O)c1)c1cc2ccccc2cc1O` [C11, (Z)-N′-(3,4-dihydroxyben-zylidene)-3-hydroxy-2-naphtho-hydrazide], the EC50 is 10 to 20 µM.
Consider `C=Cc1ccc(-c2csc(Nc3ccccc3)n2)cc1` [C15, N-phenyl-4-(4-vinylphenyl) thiazol-2-amine], for which the concentration for a half-maximal effect (EC50) is 16 µM.
As to `O=S(=O)(c1ccc(Cl)cc1)N1CCN(c2ccnc3cc(Cl)ccc23)CC1` [C9, 7-chloro-4-(4-(4-chlorophenylsul-fonyl)piperazin-1-yl)quinoline], the EC50 was < 1 µM.
`COc1ccc(Cl)cc1Nc1nc(-c2sc(NC(=O)c3ccccc3)nc2C)cs1` [C4, N-[2-(5-Chloro-2-methoxy-phenylamino)-4′-methyl-[4,5′]bithiazolyl-2′-yl]-benzamide]: the EC50 was 2 µM.
On to `Cc1cc(Nc2ccc(Br)cc2)nc2ccccc12` [C6, N-(4-bromophenyl)-4-methylquinolin-2-amine], for which the EC50 was 8 µM.
Turning to `COc1ccc2nc(Nc3nc(=O)c(C)c(C)[nH]3)nc(C)c2c1` [C16, 2-(6-methoxy-4-methylquina-zolin-2-ylamino)-5,6-dimethylpyrimi-din-4(1H)-one], the EC50 was 15 µM.
Take `Cc1ccc(-c2csc(Nc3ccc(F)cc3)n2)cc1` [C12, N-(4-fluorophenyl)-4-p-tolylthiazol-2-amine]: the EC50 was 5 µM.
As for `COc1ccc(S(=O)(=O)N2CCN(C(C)c3nc(OC4CCCCC4)c4ccccc4n3)CC2)cc1` (stereo not shown) [C3, Cyclohexyloxy-2-{1-[4-(4-methoxy-benzensulfonyl)-piperazin-1-yl]-ethyl}-quinazoline], the EC50 was 2 µM.
With `O=S(=O)(c1ccccc1)N1CCN(c2ccnc3cc(Cl)ccc23)CC1` [C10, 7-chloro-4-(4-(phenylsulfonyl)piperazin-1-yl)quinoline], the EC50 was > 100 µM.
Regarding `COc1ccc(Cl)cc1Nc1nc(-c2sc(NC(=O)C(C)(C)C)nc2C)cs1` [C17, N-(2-(5-chloro-2-methoxyphenylamino)-4′-methyl-4,5′-bithiazol-2′-yl)pivalamide], the EC50 is 1 to 2 µM.
With `COc1ccccc1Nc1ncc(-c2sc(NC(=O)c3ccccc3)nc2C)s1` [C14, N-(2′-(2-methoxyphenylamino)-4-methyl-5,5′-bithiazol-2-yl)benzamide], the EC50 was 7 µM.
Regarding `Cc1cc(C)c2c(C)cc(Nc3ccccc3)nc2c1` [C5, 4,5,7-trimethyl N-phenylquinolin-2-amine], the EC50 was 13 µM.

In another experiment the target is T1, CFTR (Homo sapiens, UniProt P13569). As to conditions: CFTR blocker; read-out: Potency: Ki; cited from earlier work.
Target sequence in this assay (P13569 whole entry): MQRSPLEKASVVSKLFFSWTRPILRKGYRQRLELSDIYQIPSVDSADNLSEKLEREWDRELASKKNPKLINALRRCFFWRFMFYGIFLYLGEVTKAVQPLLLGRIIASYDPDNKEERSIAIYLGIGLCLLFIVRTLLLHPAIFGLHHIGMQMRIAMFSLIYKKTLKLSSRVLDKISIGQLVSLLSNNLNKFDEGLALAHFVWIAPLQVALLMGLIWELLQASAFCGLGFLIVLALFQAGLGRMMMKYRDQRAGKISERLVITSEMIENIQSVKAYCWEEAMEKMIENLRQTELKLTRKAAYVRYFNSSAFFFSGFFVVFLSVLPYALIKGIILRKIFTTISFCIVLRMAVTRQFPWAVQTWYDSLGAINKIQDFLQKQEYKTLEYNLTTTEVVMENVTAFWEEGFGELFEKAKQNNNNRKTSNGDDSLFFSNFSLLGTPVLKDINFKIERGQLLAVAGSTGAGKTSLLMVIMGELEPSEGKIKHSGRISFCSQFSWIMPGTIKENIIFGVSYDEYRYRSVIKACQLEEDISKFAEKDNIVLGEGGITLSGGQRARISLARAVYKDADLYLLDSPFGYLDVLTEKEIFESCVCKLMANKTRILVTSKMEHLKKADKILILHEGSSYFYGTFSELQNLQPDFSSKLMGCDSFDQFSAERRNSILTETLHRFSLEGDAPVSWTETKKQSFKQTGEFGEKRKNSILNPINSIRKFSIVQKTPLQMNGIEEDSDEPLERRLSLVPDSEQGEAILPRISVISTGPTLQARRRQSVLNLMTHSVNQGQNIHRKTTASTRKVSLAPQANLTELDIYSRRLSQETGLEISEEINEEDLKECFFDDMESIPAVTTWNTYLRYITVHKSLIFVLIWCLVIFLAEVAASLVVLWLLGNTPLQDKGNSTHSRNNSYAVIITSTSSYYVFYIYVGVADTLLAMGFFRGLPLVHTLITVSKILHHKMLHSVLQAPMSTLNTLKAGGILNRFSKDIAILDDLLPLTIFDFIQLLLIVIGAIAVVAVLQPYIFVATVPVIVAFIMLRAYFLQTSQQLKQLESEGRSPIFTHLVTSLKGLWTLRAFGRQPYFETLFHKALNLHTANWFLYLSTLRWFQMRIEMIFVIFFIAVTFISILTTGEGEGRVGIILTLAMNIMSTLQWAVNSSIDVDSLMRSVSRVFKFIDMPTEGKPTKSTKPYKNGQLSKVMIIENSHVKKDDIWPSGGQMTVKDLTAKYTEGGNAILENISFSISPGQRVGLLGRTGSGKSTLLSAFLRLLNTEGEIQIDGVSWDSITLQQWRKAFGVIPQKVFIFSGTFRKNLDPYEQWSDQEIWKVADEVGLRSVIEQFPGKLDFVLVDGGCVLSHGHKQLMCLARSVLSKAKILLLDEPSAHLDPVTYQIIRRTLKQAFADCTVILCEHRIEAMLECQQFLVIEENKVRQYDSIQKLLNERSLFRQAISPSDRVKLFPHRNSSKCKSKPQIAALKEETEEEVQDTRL
As to `Cc1ccc(S(=O)(=O)NC(=O)Nc2ccc([N+](=O)[O-])cc2)cc1` [B3, Diarylsulfonyl- urea], the Ki was > 100 µM.
As to `Cc1ccc(C2Nc3ccccc3-n3c(-c4ccccc4)c4c(=O)n(C)c(=O)n(C)c4c32)o1` (stereo not shown) [B6, 7,9-dimethyl-11-phenyl-6-(5-methylfuran-2-yl)-5,6-dihydro-pyrimido-[4′,5′-3,4]pyrrolo[1,2-a]quinoxaline-8,10-(7H,9H)-dione], the Ki was 0.09 µM.

A further experiment concerns the target T1, CFTR. The experiment is classed as cell-based.
Details: not given
Target sequence in this assay (P13569 whole entry, looked up): as the sequence (P13569 whole entry) above
For the compound cholera toxin, the “Increase in organoid size” value was “more than double in size”, the “Organoid swelling induced by stimulus” value was “induce swelling” and the “Time course of swelling response” value is reported as “delayed compared to forskolin”.

The same experiment, now with this note: Example 2; human healthy control organoids; 3 hours pre-incubation, 50 μM.
As for `O=C(CNc1ccc2ccccc2c1)N/N=C/c1cc(Br)c(O)c(Br)c1O` [B2, (Naphthalen-2-ylamino)-acetic acid (3,5-dibromo-2,4,- dihydroxy-benzylidene)-hydrazide], the “Effect of CFTR inhibitors on forskolin-stimulated swelling” value was “reduced”.

The test system of the next experiment is CFTR. The conditions noted are these: CFTR potentiator; cited from earlier work.
`ClCc1cc(-c2ccccc2OCc2ccccc2)no1` [P10, 3-(2-Benzyloxy-phenyl)-5-chloromethyl-isoxazole]: the “Potency: Ks” value is on record as “Reference #** 10 Potency: Ks >50 microM Solvent: DMSO Hints For Use: M.W.: 299.8”.
For `O=c1[nH]c2cc(C(F)(F)F)ccc2n1-c1cccc(Cl)c1` [P4, 1-(3-chlorophenyl)-5-trifluoromethyl-3-hydrobenzi-midazol-2-one], the “Potency: Ks” value is recorded as “Reference #** 5 Name: UCCF-853 Potency: Ks = 3 microM Solvent: DMSO Hints For Use: M.W.: 312.7”.
As for `CCN(c1ccccc1)S(=O)(=O)c1ccc2[nH]cc(C(=O)NCc3ccccc3OC)c(=O)c2c1` [P3, 6-(Ethyl-phenyl-sulfonyl)-4-oxo-1,4-dihydro-quinoline-3-carboxylic acid 2-methoxy-benzylamide], the “Potency: Ks” value is “Reference #** 4 Name: SF-03 Potency: Ks = 30 nM Solvent: DMSO Hints For Use: M.W.: 491.6”.
`NC(=O)c1c(NC(=O)c2ccccc2Cl)sc2c1CCCC2` [P5, 2-(2-Chloro-benzoylamino)-4,5,6,7-tetrahydro-benzo[b] thiophene-3-carboxylic acid amide]: the “Potency: Ks” value was “Reference #** 6 Name: dF508act-02 Potency: Ks = 70 nM Solvent: DMSO Hints For Use: M.W.: 334.8”.
Regarding `CC(C)c1ccc(NC(=O)C(c2ccccc2)N(C)C(=O)Cc2c[nH]c3ccccc23)cc1` (stereo not shown) [P2, 2-[(2-1H-lndol-3-yl-acetyl)-methyl-amino]-N-(4-isopropyl-phenyl)-2-phenyl-acetamide], the “Potency: Ks” value is given as “Reference #** 4 Name: PG-01 Potency:Ks = 300 nM Solvent: DMSO Hints For Use: M.W.: 439.5”.
For `O=c1cc(-c2ccncc2)oc2c1ccc1ccccc12` [P8, 4-(4-Oxo-4H-benzo[h]chromen-2-yl)-pyridinium; bisulfate], the “Potency: Ks” value is “Reference #** 9 and 10 Potency: Ks = 2 microM Solvent: DMSO Hints For Use: M.W.: 371.4”.
For the compound `Cc1ccc(O)c(-c2cc(-c3ccccc3)[nH]n2)c1` [P1, 4-Methyl-2-(5-phenyl-1H-pyrazol-3-yl)-phenol], the “Potency: Ks” value is recorded as “Reference #**12 & 15 Name: VRT-532 Potency: Ks 3 to 5 microM Solvent: DMSO Hints For Use: M.W.: 250”.
Take `C#CCCc1nn(-c2ccccc2)c(OC)c1C=O` [P9, 3-But-3-ynyl-5-methoxy-1-phenyl-1H-pyrazole-4-carbaldehyde]: the “Potency: Ks” value is “Reference #** 10 Potency: Ks = 10 microM Solvent: DMSO Hints For Use: M.W.: 254.3”.

The experiment is the same for the next values; noted with them: CFTR potentiator; read-out: Potency: EC50; cited from earlier work.
`O=C1Cc2cc(C(F)(F)F)ccc2N1c1cc(Cl)ccc1O` [P7, 1-(5-Chloro-2-hydroxy-phenyl)-5-trifluoromethyl-1,3-dihydro-indol-2-one]: the EC50 is 3 µM.

The experiment is the same for the next values; noted with them: excised patches; cited from earlier work.
Consider `O=C1Cc2cc(C(F)(F)F)ccc2N1c1cc(Cl)ccc1O` [P7, 1-(5-Chloro-2-hydroxy-phenyl)-5-trifluoromethyl-1,3-dihydro-indol-2-one], for which the “Activity in excised patches” value is “Does not work in excised patches”.
